The assay addresses GPR54 (Homo sapiens, UniProt Q969F8). The assay can be described thus: GPR54 agonist activity by Flipr assay (increase in intracellular Ca2+ measured as fluorescence intensity). Format: cell-based. To be noted: for % activity: fluorescence intensity with 10^-8 M pentapeptide derivative relative to 10^-6 M metastin (45-54) as 100%; for Q (=EC50 (compound)/EC50 [metastin (45-54)]): specific activity value relative to metastin (45-54). On the procedure: A compound having GPR54 agonist activity (pentapeptide derivative) was prepared according to a conventional Fmoc solid phase synthesis process using Rink-amide resin (Fields G B, Noble R L., Int J Pept Protein Res. 1990; 35, 161-214.). The GPR54 agonist activity of the obtained pentapeptide derivative was evaluated according to Flipr assay method wherein an increase in the intracellular Ca^2+ ion concentration due to receptor stimulation is measured as the fluorescence intensity. […] Hereafter, the agonist activity was mainly compared based on the Q value.

Square brackets hold non-standard residues; d marks the D form. Peptide text beside a SMILES is read from it. 2Nal = N[C@@H](Cc1ccc2ccccc2c1)C(=O)O; 4Amb = NCc1ccc(C(=O)O)cc1; 4Abz = Nc1ccc(C(=O)O)cc1

Sequence of GPR54 (Q969F8 whole entry, species assumed): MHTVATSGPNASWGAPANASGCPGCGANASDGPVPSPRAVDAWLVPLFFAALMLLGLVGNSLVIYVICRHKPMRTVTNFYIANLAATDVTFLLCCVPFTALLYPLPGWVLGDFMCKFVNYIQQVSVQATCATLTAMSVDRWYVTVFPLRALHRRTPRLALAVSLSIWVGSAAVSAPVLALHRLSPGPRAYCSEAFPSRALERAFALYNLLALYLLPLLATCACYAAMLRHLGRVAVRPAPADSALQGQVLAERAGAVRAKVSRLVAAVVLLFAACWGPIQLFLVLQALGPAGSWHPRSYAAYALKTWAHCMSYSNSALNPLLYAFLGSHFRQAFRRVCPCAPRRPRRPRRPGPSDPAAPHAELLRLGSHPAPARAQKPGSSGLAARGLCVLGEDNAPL

For `CC(C)C[C@H](NC(=O)CNC(=O)[C@H](Cc1ccccc1)NC(=O)c1ccc(CN(Cc2ccccn2)Cc2ccccn2)cc1)C(=O)N[C@@H](CCCNC(=N)N)C(=O)N[C@@H](Cc1c[nH]c2ccccc12)C(N)=O` [Compound 1, reference compound], the “% activity” value turned out to be 89%. Take `CC(C)C[C@H](NC(=O)CNC(=O)[C@H](Cc1ccccc1)NC(=O)c1ccc(CNC(=N)N)cc1)C(=O)N[C@@H](CCCNC(=N)N)C(=O)N[C@@H](Cc1c[nH]c2ccccc12)C(N)=O` [Compound 2, reference compound]: the “% activity” value was 94%.

Consider `CC(C)C[C@H](NC(=O)CNC(=O)[C@H](Cc1ccccc1)NC(=O)c1ccc(CN)cc1)C(=O)N[C@@H](CCCNC(=N)N)C(=O)N[C@@H](Cc1c[nH]c2ccccc12)C(N)=O` [Compound 6, 4-(aminomethyl)benzoyl-Phe-Gly-Leu-Arg-Trp-NH2] (H-[4Amb]FGLRW-NH2), for which the “% activity” value is 97% and the “Q (=EC50 (compound)/EC50 [metastin (45-54)])” value was 3.4. On to `CC(C)C[C@H](NC(=O)CNC(=O)[C@H](Cc1ccc2ccccc2c1)NC(=O)c1ccc(CN)cc1)C(=O)N[C@@H](CCCNC(=N)N)C(=O)N[C@@H](Cc1c[nH]c2ccccc12)C(N)=O` [Compound 8, 4-(aminomethyl)benzoyl-Nal(2)-Gly-Leu-Arg-Trp-NH2] (H-[4Amb][2Nal]GLRW-NH2), for which the “% activity” value is 89%. Also, the “agonist activity, times stronger than compound 6” value (compared with compound 6) is “about 4 times”.

Turning to `CC(C)C[C@H](NC(=O)CNC(=O)[C@H](Cc1ccccc1)NC(=O)c1ccc(N)cc1)C(=O)N[C@@H](CCCNC(=N)N)C(=O)N[C@@H](Cc1c[nH]c2ccccc12)C(N)=O` [Compound 20, 4-aminobenzoyl-Phe-Gly-Leu-Arg-Trp-NH2] (H-[4Abz]FGLRW-NH2), the “% activity” value came to 90%.

As to `CC(C)C[C@H](NC(=O)CNC(=O)[C@H](Cc1ccccc1)NC(=O)c1c[nH]cn1)C(=O)N[C@@H](CCCNC(=N)N)C(=O)N[C@@H](Cc1c[nH]c2ccccc12)C(N)=O` [Compound 26, 4-imidazolylcarbonyl-Phe-Gly-Leu-Arg-Trp-NH2], the “% activity” value came to 88%. The same measure, in the same setting: in the case of `CC(C)C[C@H](NC(=O)CNC(=O)[C@H](Cc1ccccc1)NC(=O)c1ccc[nH]1)C(=O)N[C@@H](CCCNC(=N)N)C(=O)N[C@@H](Cc1c[nH]c2ccccc12)C(N)=O` [Compound 27, 2-pyrrolylcarbonyl-Phe-Gly-Leu-Arg-Trp-NH2] it was 96%; in that of `CC(=O)NCc1ccc(C(=O)N[C@@H](Cc2ccccc2)C(=O)NCC(=O)N[C@@H](CC(C)C)C(=O)N[C@@H](CCCNC(=N)N)C(=O)N[C@@H](Cc2c[nH]c3ccccc23)C(N)=O)cc1` [Compound 28, N-acetyl-4-(aminomethyl)benzoyl-Phe-Gly-Leu-Arg-Trp-NH2] (Ac-[4Amb]FGLRW-NH2), 100%; in that of `CC(C)C[C@H](NC(=O)CNC(=O)[C@H](Cc1ccccc1)NC(=O)c1ccc(O)cc1)C(=O)N[C@@H](CCCNC(=N)N)C(=O)N[C@@H](Cc1c[nH]c2ccccc12)C(N)=O` [Compound 30, 4-hydroxybenzoyl-Phe-Gly-Leu-Arg-Trp-NH2], 95%. Consider `CC(C)C[C@H](NC(=O)CNC(=O)[C@H](Cc1ccccc1)NC(=O)c1ccc([N+](=O)[O-])cc1)C(=O)N[C@@H](CCCNC(=N)N)C(=O)N[C@@H](Cc1c[nH]c2ccccc12)C(N)=O` [Compound 37, 4-nitrobenzoyl-Phe-Gly-Leu-Arg-Trp-NH2], for which the “% activity” value was 94%. On the same count and under the same terms, in the case of `CC(C)C[C@H](NC(=O)CNC(=O)[C@H](Cc1ccccc1)NC(=O)c1ccc(Cl)cc1)C(=O)N[C@@H](CCCNC(=N)N)C(=O)N[C@@H](Cc1c[nH]c2ccccc12)C(N)=O` [Compound 38, 4-chlorobenzoyl-Phe-Gly-Leu-Arg-Trp-NH2] it was 92%. For the compound `CC(C)C[C@H](NC(=O)CNC(=O)[C@H](Cc1ccccc1)NC(=O)c1ccc(F)cc1)C(=O)N[C@@H](CCCNC(=N)N)C(=O)N[C@@H](Cc1c[nH]c2ccccc12)C(N)=O` [Compound 39, 4-fluorobenzoyl-Phe-Gly-Leu-Arg-Trp-NH2], the “% activity” value worked out at 96%. As to `CC(C)C[C@H](NC(=O)CNC(=O)[C@H](Cc1ccccc1)NC(=O)[C@H](CO)NC(=O)[C@H](CC(N)=O)NC(=O)[C@H](Cc1c[nH]c2ccccc12)NC(=O)[C@H](CC(N)=O)NC(=O)[C@@H](N)Cc1ccc(O)cc1)C(=O)N[C@@H](CCCNC(=N)N)C(=O)N[C@@H](Cc1ccccc1)C(N)=O` [Metastin (45-54), reference compound], the half-maximal effective concentration (EC50) lay in the range of 0.36 to 1.1 nM, the “% activity” value is on record as 100% and the “Q (=EC50 (compound)/EC50 [metastin (45-54)])” value is reported as 1.0.

As usually defined, the EC50 is the concentration giving half of the maximal effect. Read a high EC50 as weaker potency.

The values above are taken from patent US8183212B2, “Compound having GPR54 agonistic activity” (Kyoto University, priority 2006, dated 2012).
